Measured values: patent US7582652B2, “Kinase inhibitors” (Eli Lilly and Company, priority 2004, dated 2009)

Tested on: MAPKAP-K2 phosphorylation in B16F10 melanoma tumors
Experiment: B16F10 melanoma target (MAPKAP-K2 phosphorylation)
Assay type: in vivo, C57B16 mice
Details: p.o., B16F10 tumors in mice, MAPKAP-K2 phosphorylation by immuno-blot
Protocol: B16F10 Melanoma Target (MAPKAP-K2 Phosphorylation)
The B16F10 melanoma cell line is obtained from the American Type Culture Collection, Rockville, Md. The cells are cultured in RPMI-1640 medium supplemented with 10% fetal calf serum. The cells grown in vitro are harvested during their exponential growth phase by gentle trypsinization, washed twice in medium, and resuspended in serum-free RPMI-1640 medium. The number of viable cells is determined using a hemocytometer and adjusted to 1×10^7/mL. Tumor cells are injected subcutaneously in normal C57B16 mice. Inoculum volume per mouse is 0.2 mL (2,000,000 cells). When the tumors reach 300-500 mg, the mice are used for target inhibition studies at either a fixed time (2.5 hours) after p.o. compound treatment or pharmacodynamic studies where the tumors are collected at multiple time-points (e.g., 3, 6, 9, 12, 15, and 18 h) after p.o. compound treatment.
Protein Extraction and Immuno-Blot Analysis
Tumors collected as described above are immediately snap-frozen in liquid nitrogen and stored at −80° C. […] The supernatant is transferred to fresh prechilled microfuge tubes and protein concentrations are measured using Bio-Rad protein assay reagents using bovine serum albumin as protein standard.
Protein extracts are equalized with the extraction buffer. […] Protein bands of interest are quantified from films using Kodak Image Station 1000.

Molecule `CC(C)(C)Cn1c(N)nc2ccc(-c3nc(C(C)(C)C)[nH]c3-c3ccc(F)cc3)nc21.CS(=O)(=O)O.CS(=O)(=O)O` [EXAMPLE 104, Crystalline 5-[2-tert-Butyl-5-(4-fluoro-phenyl)-1H-imidazol-4-yl]-3-(2,2-dimethyl-propyl)-3H-imidazo[4,5-b]pyridin-2-ylamine dimethanesulfonate] has a TMED50 of 3.59 mg/kg.
